Assay results as given in patent publication US10519134B2, “Pyrazole compounds and methods of making and using same” (Lundbeck La Jolla Research Center, Inc., priority 2015, dated 2019).

How the values were obtained:
MAGL [1] = target: T1, MAGL (Mus musculus, UniProt O35678); assay: Mouse brain proteomes from inhibitor treated mice (oral gavage, sacrificed 4 h after administration); assay type: in vivo; settings: read-out: MAGL % inh. 5 mg/kg
T1 construct: Proteomes (mouse brain membrane fraction or cell lysates); from tissue; host or cells: mouse brain membrane fraction (or cell lysates)
T1 sequence (O35678 1-303): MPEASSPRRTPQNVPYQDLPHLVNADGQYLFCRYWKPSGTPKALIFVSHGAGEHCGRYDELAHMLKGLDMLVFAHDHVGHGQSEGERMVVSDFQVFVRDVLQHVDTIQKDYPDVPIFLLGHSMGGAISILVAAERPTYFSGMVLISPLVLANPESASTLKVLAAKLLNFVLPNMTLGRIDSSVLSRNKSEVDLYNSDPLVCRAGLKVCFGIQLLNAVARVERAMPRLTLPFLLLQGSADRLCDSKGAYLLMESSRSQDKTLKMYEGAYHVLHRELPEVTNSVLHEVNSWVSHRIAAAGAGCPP
Summary of the method: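 Brains were collected 4 h after oral gavage dosing of wild-type C57Bl/6J mice, vehicle polyethylene glycol. Proteomes from these brains were then analyzed for MAGL and other serine hydrolase activity.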

MAGL [2] = target: T1, MAGL; assay: In vitro competitive activity-based protein profiling (mouse), MAGL gel band; assay type: biochemical; settings: for inhibition at 1 µM: read-out: MAGL % inh. 1 μM; for IC50: mouse
Summary of the method: (§1)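 Mouse brain membrane proteome or cell lysate (1.0 mg/mL total protein) was preincubated with varying inhibitor concentrations for 30 min at 37 °C, then labelled for 30 min at 37 °C with FP-Rh or HT-01 (50 μM stock in DMSO). Activity was read as fluorescent band intensity after SDS-PAGE.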

FAAH = target: T2, FAAH (Mus musculus, UniProt O08914); assay: In vitro competitive activity-based protein profiling (mouse), FAAH gel band; assay type: biochemical; settings: for inhibition at 1 µM: read-out: FAAH % inh. 1 μM; for IC50: mouse
T2 construct: Proteomes (mouse brain membrane fraction or cell lysates); from tissue; host or cells: mouse brain membrane fraction (or cell lysates)
T2 sequence (O08914 1-579): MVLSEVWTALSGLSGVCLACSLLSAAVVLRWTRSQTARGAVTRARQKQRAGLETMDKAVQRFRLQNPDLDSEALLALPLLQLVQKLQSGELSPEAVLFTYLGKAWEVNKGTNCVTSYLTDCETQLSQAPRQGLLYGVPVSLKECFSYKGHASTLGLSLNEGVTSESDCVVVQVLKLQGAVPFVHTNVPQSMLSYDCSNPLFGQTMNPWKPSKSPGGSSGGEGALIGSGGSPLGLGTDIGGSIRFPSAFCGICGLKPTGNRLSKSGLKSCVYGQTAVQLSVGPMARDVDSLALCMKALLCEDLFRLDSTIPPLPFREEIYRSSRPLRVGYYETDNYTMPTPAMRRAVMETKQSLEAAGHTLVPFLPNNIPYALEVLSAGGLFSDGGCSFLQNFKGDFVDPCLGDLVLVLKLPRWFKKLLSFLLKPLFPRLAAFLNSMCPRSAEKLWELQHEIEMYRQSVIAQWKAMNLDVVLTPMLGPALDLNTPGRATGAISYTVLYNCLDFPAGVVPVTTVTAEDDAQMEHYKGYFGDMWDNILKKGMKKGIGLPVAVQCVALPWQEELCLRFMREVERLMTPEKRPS
Summary of the method: as §1

MAGL [3] = target: T3, MAGL (Homo sapiens, UniProt Q99685); assay: In vitro competitive activity-based protein profiling (human), MAGL gel band; assay type: biochemical
T3 construct: Proteomes (human prefrontal cortex or cell membrane fractions); from tissue; host or cells: human prefrontal cortex (or cell membrane fractions)
T3 sequence (Q99685 1-303): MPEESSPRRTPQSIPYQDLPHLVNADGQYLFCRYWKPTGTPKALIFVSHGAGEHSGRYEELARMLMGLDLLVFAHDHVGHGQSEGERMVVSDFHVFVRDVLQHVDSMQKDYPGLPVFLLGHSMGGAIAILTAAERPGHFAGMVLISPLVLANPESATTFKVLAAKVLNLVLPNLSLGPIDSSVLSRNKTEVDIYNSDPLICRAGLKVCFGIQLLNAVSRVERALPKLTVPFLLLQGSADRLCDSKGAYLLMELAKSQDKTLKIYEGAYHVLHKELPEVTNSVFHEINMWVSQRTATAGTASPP
Summary of the method: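 Human prefrontal cortex or cell membrane proteomes (1.0-2.0 mg/mL protein) preincubated with inhibitors 30 min at 37° C, then labelled with FP-Rh or JW912 probe 30 min at room temperature. Residual MAGL activity read as fluorescent gel-band intensity after SDS-PAGE.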

Compound: CS(=O)(=O)Nc1ccn(C(=O)N2CCN(Cc3ccc(Cl)c(N4CCC(F)CC4)c3)CC2)n1 [Example 201, N-(1-(4-(4-chloro-3-(4-fluoropiperidin-1-yl)benzyl)piperazine-1-carbonyl)-1H-pyrazol-3-yl) methanesulfonamide]
- inhibition at 5 mg/kg (MAGL [1]): ≥ 75%
- inhibition at 1 µM (MAGL [2]): ≥ 75%
- inhibition at 1 µM (FAAH): 0 to 25%
- IC50 (MAGL [3]): ≤ 100 nM

Compound: CS(=O)(=O)Nc1ccn(C(=O)N2CCC3(CCCN3Cc3ccc(C(F)(F)F)cc3N3CCCC3)CC2)n1 [Example 125, N-(1-(1-(2-(pyrrolidin-1-yl)-4-(trifluoromethyl)benzyl)-1,8-diazaspiro[4.5]decane-8-carbonyl)-1H-pyrazol-3-yl) methanesulfonamide]
- inhibition at 5 mg/kg (MAGL [1]): 0 to 25%
- IC50 (MAGL [2]): ≤ 100 nM
- inhibition at 1 µM (MAGL [2]): ≥ 75%
- IC50 (FAAH): 1000 to 10000 nM
- inhibition at 1 µM (FAAH): 0 to 25%
- IC50 (MAGL [3]): ≤ 100 nM

Compound: CS(=O)(=O)Nc1ccn(C(=O)N2CCN(Cc3ccc(C(F)(F)F)cc3N3CCC3)CC2)n1 [Example 175, N-(1-(4-(2-(azetidin-1-yl)-4-(trifluoromethyl)benzyl)piperazine-1-carbonyl)-1H-pyrazol-3-yl) methanesulfonamide]
- inhibition at 5 mg/kg (MAGL [1]): ≥ 75%
- inhibition at 1 µM (MAGL [2]): ≥ 75%
- inhibition at 1 µM (FAAH): 0 to 25%
- IC50 (MAGL [3]): ≤ 100 nM

Compound: [2H]C([2H])([2H])c1cc(CN2CCCC23CCN(C(=O)n2ccc(NC(C)=O)n2)CC3)ccc1Cl [Example 294, N-(1-(1-(4-chloro-3-(methyl-d3)benzyl)-1,8-diazaspiro[4.5]decane-8-carbonyl)-1H-pyrazol-3-yl)acetamide]
- inhibition at 5 mg/kg (MAGL [1]): ≥ 75%
- inhibition at 1 µM (MAGL [2]): ≥ 75%
- inhibition at 1 µM (FAAH): 0 to 25%
- IC50 (MAGL [3]): ≤ 100 nM

Compound: CS(=O)(=O)Nc1ccn(C(=O)N2CCN(Cc3cc(Cl)ccc3N3CCOCC3)CC2)n1 [Example 123, N-(1-(4-(5-chloro-2-morpholinobenzyl)piperazine-1-carbonyl)-1H-pyrazol-3-yl) methanesulfonamide]
- inhibition at 5 mg/kg (MAGL [1]): 25 to 50%
- IC50 (MAGL [2]): 100 to 1000 nM
- inhibition at 1 µM (MAGL [2]): ≥ 75%
- IC50 (FAAH): 1000 to 10000 nM
- inhibition at 1 µM (FAAH): 0 to 25%
- IC50 (MAGL [3]): ≤ 100 nM

Compound: CC(=O)N1CCC2(CC1)CN(c1cc(C(F)(F)F)ccc1CN1CCN(C(=O)n3ccc(NS(C)(=O)=O)n3)CC1)C2 [Example 229, N-(1-(4-(2-(7-acetyl-2,7-diazaspiro[3.5]nonan-2-yl)-4-(trifluoromethyl)benzyl)piperazine-1-carbonyl)-1H-pyrazol-3-yl) methanesulfonamide]
- inhibition at 5 mg/kg (MAGL [1]): 0 to 25%
- inhibition at 1 µM (MAGL [2]): ≥ 75%
- inhibition at 1 µM (FAAH): 0 to 25%
- IC50 (MAGL [3]): ≤ 100 nM

Compound: Cc1ccc(CN2CCN(C(=O)n3ccc(NS(C)(=O)=O)n3)CC2)c(N2CCCC2)c1 [Example 137, N-(1-(4-(4-methyl-2-(pyrrolidin-1-yl)benzyl)piperazine-1-carbonyl)-1H-pyrazol-3-yl) methanesulfonamide]
- IC50 (MAGL [2]): 100 to 1000 nM
- inhibition at 1 µM (MAGL [2]): ≥ 75%
- IC50 (FAAH): 1000 to 10000 nM
- inhibition at 1 µM (FAAH): 0 to 25%
- IC50 (MAGL [3]): ≤ 100 nM

Compound: CS(=O)(=O)Nc1ccn(C(=O)N2CCN(Cc3ccc(C(F)(F)F)cc3N3CCN(C4CC4)CC3)CC2)n1 [Example 172, N-(1-(4-(2-(4-cyclopropylpiperazin-1-yl)-4-(trifluoromethyl)benzyl)piperazine-1-carbonyl)-1H-pyrazol-3-yl) methanesulfonamide]
- inhibition at 1 µM (MAGL [2]): ≥ 75%
- inhibition at 1 µM (FAAH): 0 to 25%
- IC50 (MAGL [3]): ≤ 100 nM

Compound: C#Cc1ccc(CN2CCN(C(=O)n3ccc(NC(C)=O)n3)CC2)cc1 [Example 210, N-(1-(4-(4-ethynylbenzyl)piperazine-1-carbonyl)-1H-pyrazol-3-yl) acetamide]
- inhibition at 1 µM (MAGL [2]): ≥ 75%
- inhibition at 1 µM (FAAH): 0 to 25%
- IC50 (MAGL [3]): ≤ 100 nM

Compound: CN(C)C(=O)C1CCN(c2cc(C(F)(F)F)ccc2CN2CCN(C(=O)n3ccc(NS(C)(=O)=O)n3)CC2)CC1 [Example 231, N,N-dimethyl-1-(2-((4-(3-(methylsulfonamido)-1H-pyrazole-1-carbonyl)piperazin-1-yl)methyl)-5-(trifluoromethyl)phenyl)piperidine-4-carboxamide]
- inhibition at 1 µM (MAGL [2]): ≥ 75%
- inhibition at 1 µM (FAAH): 0 to 25%
- IC50 (MAGL [3]): ≤ 100 nM

Compound: CS(=O)(=O)Nc1ccn(C(=O)N2CCN(Cc3ccc(C(F)(F)F)cc3N3CC4COCC4C3)CC2)n1 (stereo not shown) [Example 205, N-(1-(4-(2-(tetrahydro-1H-furo[3,4-c]pyrrol-5(3H)-yl)-4-(trifluoromethyl)benzyl)piperazine-1-carbonyl)-1H-pyrazol-3-yl) methanesulfonamide]
- inhibition at 1 µM (MAGL [2]): ≥ 75%
- inhibition at 1 µM (FAAH): 0 to 25%
- IC50 (MAGL [3]): ≤ 100 nM

Compound: CS(=O)(=O)Nc1ccn(C(=O)N2CCN(Cc3ccc(C(F)(F)F)cc3N3CCC4(CC3)CCN(S(C)(=O)=O)C4)CC2)n1 [Example 234, N-(1-(4-(2-(2-(methylsulfonyl)-2,8-diazaspiro[4.5]decan-8-yl)-4-(trifluoromethyl)benzyl)piperazine-1-carbonyl)-1H-pyrazol-3-yl) methanesulfonamide]
- inhibition at 1 µM (MAGL [2]): ≥ 75%
- inhibition at 1 µM (FAAH): 0 to 25%
- IC50 (MAGL [3]): ≤ 100 nM

Compound: CS(=O)(=O)Nc1ccn(C(=O)N2CCC3(CCCN3Cc3ccc(C(F)(F)F)cc3N3CCC(F)CC3)CC2)n1 [Example 178, N-(1-(1-(2-(4-fluoropiperidin-1-yl)-4-(trifluoromethyl)benzyl)-1,8-diazaspiro[4.5]decane-8-carbonyl)-1H-pyrazol-3-yl) methanesulfonamide]
- inhibition at 1 µM (MAGL [2]): ≥ 75%
- inhibition at 1 µM (FAAH): 0 to 25%
- IC50 (MAGL [3]): ≤ 100 nM

Compound: CS(=O)(=O)Nc1ccn(C(=O)N2CCN(Cc3cc(C(F)(F)F)ccc3N3CCCC3)CC2)n1 [Example 180, N-(1-(4-(2-(pyrrolidin-1-yl)-5-(trifluoromethyl)benzyl)piperazine-1-carbonyl)-1H-pyrazol-3-yl) methanesulfonamide]
- inhibition at 1 µM (MAGL [2]): ≥ 75%
- inhibition at 1 µM (FAAH): 0 to 25%
- IC50 (MAGL [3]): ≤ 100 nM

Compound: CS(=O)(=O)Nc1ccn(C(=O)N2CCN(Cc3ccc(Cl)cc3N3CCC(F)CC3)CC2)n1 [Example 227, N-(1-(4-(4-chloro-2-(4-fluoropiperidin-1-yl)benzyl)piperazine-1-carbonyl)-1H-pyrazol-3-yl) methanesulfonamide]
- inhibition at 1 µM (MAGL [2]): ≥ 75%
- inhibition at 1 µM (FAAH): 0 to 25%
- IC50 (MAGL [3]): ≤ 100 nM

Compound: CS(=O)(=O)Nc1ccn(C(=O)N2CCN(Cc3ccc(C(F)(F)F)cc3N3CCC(c4nnn[nH]4)CC3)CC2)n1 [Example 240, N-(1-(4-(2-(4-(1H-tetrazol-5-yl)piperidin-1-yl)-4-(trifluoromethyl)benzyl)piperazine-1-carbonyl)-1H-pyrazol-3-yl) methanesulfonamide]
- inhibition at 1 µM (MAGL [2]): ≥ 75%
- inhibition at 1 µM (FAAH): 0 to 25%
- IC50 (MAGL [3]): 100 to 1000 nM

Compound: CC(=O)NC1CCN(c2cc(C(F)(F)F)ccc2CN2CCN(C(=O)n3ccc(NS(C)(=O)=O)n3)CC2)CC1 [Example 269, N-(1-(2-((4-(3-(methylsulfonamido)-1H-pyrazole-1-carbonyl)piperazin-1-yl)methyl)-5-(trifluoromethyl)phenyl)piperidin-4-yl)acetamide]
- IC50 (MAGL [2]): ≤ 100 nM
- inhibition at 1 µM (MAGL [2]): ≥ 75%
- IC50 (FAAH): 1000 to 10000 nM
- inhibition at 1 µM (FAAH): 0 to 25%
- IC50 (MAGL [3]): ≤ 100 nM

Compound: CS(=O)(=O)Nc1ccn(C(=O)N2CCN(Cc3cccc(-c4cccnc4)c3)CC2)n1 [Example 120, N-(1-(4-(3-(pyridin-3-yl)benzyl)piperazine-1-carbonyl)-1H-pyrazol-3-yl) methanesulfonamide]
- IC50 (MAGL [2]): 100 to 1000 nM
- inhibition at 1 µM (MAGL [2]): ≥ 75%
- IC50 (FAAH): 1000 to 10000 nM
- inhibition at 1 µM (FAAH): 0 to 25%
- IC50 (MAGL [3]): ≤ 100 nM
